Results as given in paper PMC6720259, “Phlorotannins with Potential Anti-Tyrosinase and Antioxidant Activity Isolated from the Marine Seaweed Ecklonia stolonifera” (Antioxidants, 2019).
“Also recorded” adds a separate entry of the source. Like-named read-outs stand apart in the source and are kept apart here.

Tests used:
IBMX-treated cells = test system: IBMX-treated cells; parameters: method as in PMID 19361156; details: cited from earlier work
[1] = ONOO− radical scavenging assay; details: mean ± SD of triplicates
Procedure: ONOO^− scavenging activity was assessed by a modified version of Kooy’s method, which monitors the production of fluorescent rhodamine 123 from non-fluorescent DHR 123 in the presence of ONOO^−. L-Penicillamine was used as a positive control.

[2] = DPPH radical scavenging activity; details: mean ± SD of triplicates
Procedure: DPPH radical scavenging activity was evaluated by the method described by Blois, 1958 [19] with slight modifications. L-Ascorbic acid was used as a positive control.

mushroom tyrosinase [3] = biological target: T1, mushroom tyrosinase (Agaricus bisporus, UniProt C7FF04); experiment: Kinetic analysis of mushroom tyrosinase inhibition (Lineweaver-Burk and Dixon plots); format: biochemical; details: for Ki: Dixon plot; for Type of inhibition, L-DOPA / Type of inhibition, L-Tyrosine: Lineweaver-Burk plot
T1 construct: purchased Sigma Aldrich
T1 sequence (C7FF04 1-392 limits assumed): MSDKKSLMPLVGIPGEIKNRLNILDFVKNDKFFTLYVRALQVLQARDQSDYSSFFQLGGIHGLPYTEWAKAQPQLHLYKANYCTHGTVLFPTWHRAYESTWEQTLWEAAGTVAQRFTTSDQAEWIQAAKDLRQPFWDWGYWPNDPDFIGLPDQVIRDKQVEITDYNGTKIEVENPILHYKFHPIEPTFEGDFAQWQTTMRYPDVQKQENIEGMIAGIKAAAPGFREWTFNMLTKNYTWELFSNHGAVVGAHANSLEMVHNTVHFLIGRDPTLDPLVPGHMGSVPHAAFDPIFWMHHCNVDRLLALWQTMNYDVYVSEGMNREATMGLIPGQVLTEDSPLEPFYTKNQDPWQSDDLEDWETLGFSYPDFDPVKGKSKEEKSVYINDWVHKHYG
Procedure: The inhibition mode and inhibition constant (Ki) for mushroom tyrosinase inhibition were calculated from the Lineweaver-Burk and Dixon plots. Kinetic parameters were obtained for various concentrations of the substrates (L-tyrosine and L-DOPA) and inhibitors (974-A, phlorofucofuroeckol-A and eckol). Graphs were generated with Sigma plot 12.0 (SPSS Inc., Chicago, IL, USA).

[4] = test system: cellular tyrosinase of B16F10 cells; experiment: Cellular TYR activity assay (L-DOPA oxidase activity); format: cell-based, mouse; details: for Cellular tyrosinase activity of α-MSH-stimulated B16F10 cells: 6.25-100 μM, α-MSH 3 μM, 24 h; for Inhibition of cellular tyrosinase compared with arbutin (500 μM): compound at 100 μM, α-MSH-stimulated B16F10 cells
Procedure: Cellular TYR activity was measured as L-DOPA oxidase activity by a previously described method with some modifications. Cells were seeded at 1 × 10^4 cells/well in a 24-well plate, incubated for 24 h and then stimulated with α-MSH (3 μM) in the presence or absence of 974-A, phlorofucofuroeckol-A, or eckol for 24 h. After treatment, the cells were washed with cold PBS and lysed with RIPA buffer. The cell lysates were centrifuged at 12,000 rpm for 10 min, and the supernatant was used as the cellular TYR solution. The reaction mixture, which contained 80 μL of the cell lysate and 20 μL of L-DOPA (20 mM), was incubated at 37 °C for 45 min. After the incubation, dopachrome formation was measured spectrophotometrically every 10 min for 45 min at 450 nm on a microplate reader (Molecular Devices). TYR activity was calculated as a percentage of the control.

[5] = ABTS•+ radical scavenging assay; details: mean ± SD of triplicates
From the text: This assay assesses the ability of different substances to scavenge ABTS radical cations (ABTS^•+) in comparison with the positive control, Trolox. The method was developed by Re et al. 1999 [21].

B16F10 melanoma cells [6] = experiment: Melanin content assay in α-MSH-stimulated cells; format: cell-based, mouse; details: for Melanin content of α-MSH-stimulated B16F10 cells: 6.25-100 μM, α-MSH 3 μM, 24 h; for Inhibition of melanin content compared with arbutin (500 μM): compound at 100 μM, α-MSH-stimulated B16F10 cells
Procedure: The intracellular melanin content was determined according to a procedure described previously with minor modifications. Briefly, B16F10 cells were seeded in a 24-well plate at 1 × 10^4 cells/well and incubated for 24 h in DMEM containing 10% FBS. Cells were pretreated with various concentrations of 974-A, phlorofucofuroeckol-A, and eckol for 1 h, and then were stimulated with α-MSH (3 μM) for 24 h. The cells were washed with PBS, and were dissolved in 1 N NaOH containing 10% DMSO by being boiled at 80 °C for 30 min. The cell lysates were centrifuged at 14,000 rpm for 10 min, and the absorbance of the supernatant was measured at 405 nm on a microplate reader (Molecular Devices). The absorbance was normalized to the total protein content for the determination of the melanin content.

[7] = test system: tyrosinase, TRP-1, and TRP-2 expression in B16F10 cells; experiment: Western blot analysis of melanogenic enzymes; format: cell-based, mouse; details: 12.5–50 μM, α-MSH-stimulated B16F10 cells
Procedure: B16F10 cells were stimulated with α-MSH in the presence or absence of compounds for the indicated times. The cells were then washed with ice-cold PBS and lysed with RIPA buffer on ice for 30 min. After centrifugation of the samples at 12,000× g for 20 min, the protein concentrations of the supernatants were determined. Aliquots of protein were resolved by sodium dodecyl sulfate-polyacrylamide gel electrophoresis (SDS-PAGE) and transferred onto a nitrocellulose membrane. The membrane was washed with Tris-buffered saline (TBS; 10 mM Tris-HCl, 150 mM NaCl, pH 7.5) supplemented with 0.05% Tween 20 (TBST), blocked with 5% skim milk (w/v) in TBST for 2 h and incubated for approximately 20 h with the primary antibodies. The immunoblots were then incubated with the appropriate secondary antibody coupled to horseradish peroxidase for 2 h, and protein levels were detected with an ECL detection kit. Densitometric analysis of data from at least three independent experiments was performed with a cooled CCD camera system and CS analyzer version 3.00 software. Fold-increases in protein expression were calculated versus normal controls. The experiments were repeated three times for each experimental condition.

B16F10 melanoma cells [8] = experiment: Cell viability (MTT) assay; format: cell-based, mouse; details: 6.25, 12.5, 25, 50, and 100 μM, with or without α-MSH co-treatment
Procedure: B16F10 mouse melanoma cells were obtained from the American Type Culture Collection (Manassas, VA, USA). Cells were cultured at 37 °C in high-glucose DMEM supplemented with 10% FBS, 100 U/mL penicillin, and 100 μg/mL streptomycin in a humidified atmosphere containing 5% CO2. The MTT assay was used to determine the cytotoxicity of 974-A, phlorofucofuroeckol-A, and eckol according to previously described methods with slight modifications. Briefly, B16F10 cells were seeded in a 96-well plate at 1 × 10^4 cells/well and incubated for 24 h in DMEM supplemented with 10% FBS. […] After 24-h incubation of the samples, the FBS-free DMEM was suctioned, and the cells were treated with an MTT solution (100 μL at 0.5 mg/mL in phosphate-buffered saline (PBS)) and incubated for 2 h. The proportion of surviving cells was determined after the medium was replaced with 100 µL of DMSO. […] The absorbance was measured at 570 nm on a microplate reader (Molecular Devices, Sunnyvale, CA, USA).

mushroom tyrosinase [9] = biological target: T1, mushroom tyrosinase; experiment: In vitro mushroom tyrosinase inhibitory assay (L-tyrosine and L-DOPA as substrates); format: biochemical; details: for IC50: mean ± SD of triplicates
Procedure: Mushroom tyrosinase inhibitory activity was assessed by the method described by Kang et al. 2004 [17] with slight modifications.

tyrosinase = test system: tyrosinase; parameters: method as in PMID 19490939; details: at 50 μM; cited from earlier work
[10] = test system: cellular melanin and tyrosinase; parameters: method as in earlier work; details: previous study; cited from earlier work
melanin synthesis = test system: melanin synthesis; parameters: method as in PMID 19490939; details: at 250 μM; cited from earlier work
[11] = substrate L-DOPA, read-out: Ki Value, L-DOPA
[12] = substrate L-tyrosine, read-out: Ki Value, L-Tyrosine
[13] = substrate L-DOPA, read-out: IC50 Value, Mushroom Tyrosinase Inhibition, L-DOPA
[14] = substrate L-tyrosine, read-out: IC50 Value, Mushroom Tyrosinase Inhibition, L-Tyrosine
[15] = IC50 Value, Mushroom Tyrosinase Inhibition, L-DOPA, substrate L-DOPA
[16] = IC50 Value, Mushroom Tyrosinase Inhibition, L-Tyrosine, substrate L-tyrosine

| Compound | IC50 [1] | IC50 [2] | IC50 [5] | Type of inhibition, L-DOPA (mushroom tyrosinase [3]; substrate L-DOPA) | Type of inhibition, L-Tyrosine (mushroom tyrosinase [3]; substrate L-tyrosine) | Cellular tyrosinase activity of α-MSH-stimulated B16F10 cells [4] | Inhibition of cellular tyrosinase compared with arbutin (500 μM) [4] | Melanin content of α-MSH-stimulated B16F10 cells (B16F10 melanoma cells [6]) | Inhibition of melanin content compared with arbutin (500 μM) (B16F10 melanoma cells [6]) | Expression of tyrosinase, TRP-1, and TRP-2 (Western blot) [7] | Cytotoxicity towards B16F10 melanoma cells (MTT) (B16F10 melanoma cells [8]) | also measured |
| --- | --- | --- | --- | --- | --- | --- | --- | --- | --- | --- | --- | --- |
| 7-phloreckol [Compound 7-phloreckol] |  |  |  |  |  |  |  |  |  |  |  | Melanin content of IBMX-treated cells (IBMX-treated cells): significantly and dose-dependently reduced the melanin content |
| Oc1cc(O)cc(Oc2c(O)cc(O)c3c2Oc2c(O)cc(Oc4c(O)cc(Oc5c(O)cc(O)c6c5Oc5c(O)cc(O)cc5O6)cc4O)cc2O3)c1 [Dieckol] |  |  |  |  |  |  |  |  |  |  |  | Tyrosinase inhibitory activity (tyrosinase): 88.9% |
| Oc1cc(O)cc(Oc2c(O)cc(O)c3c2Oc2c(O)cc(O)cc2O3)c1 [Eckol, eckol] | 0.73 ± 0.07 µM | 1.63 ± 0.65 µM | 5.01 ± 0.19 µM | Non-competitive | Non-competitive | reduced the cellular melanin content and tyrosinase activity | as active | reduced the cellular melanin content | more effective than arbutin | downregulated the expression of melanogenesis enzymes; also recorded: dose-dependently attenuated the expression of TYR, TRP-1, and TRP-2 | none of them exhibited significant cytotoxicity up to 100 μM | Melanin levels and tyrosinase at a cellular level [10]: dose-dependently reduce melanin levels and inhibit tyrosinase at a cellular level; Ki (mushroom tyrosinase [3]; [11]): 28.5 µM; Type of inhibition, L-DOPA (mushroom tyrosinase [3]; substrate L-DOPA, listed as eckol): non-competitive; Ki (mushroom tyrosinase [3]; [12]): 8.6 µM; Type of inhibition, L-Tyrosine (mushroom tyrosinase [3]; substrate L-tyrosine, listed as eckol): non-competitive; IC50 (mushroom tyrosinase [9]; [15]): 29.6 ± 0.48 µM; IC50 (mushroom tyrosinase [9]; [16]): 9.12 ± 0.36 µM |
| Oc1cc(O)cc(Oc2c(O)cc(O)c3c2Oc2c(O)cc4oc5c(Oc6cc(O)cc(O)c6)c(O)cc(O)c5c4c2O3)c1 [Phlorofucofuroeckol-A, phlorofucofuroeckol-A] | 0.85 ± 0.1 µM | 1.92 ± 0.09 µM | 12.9 ± 0.95 µM | Non-competitive | Non-competitive | reduced the cellular melanin content and tyrosinase activity | more potent | reduced the cellular melanin content | comparable to arbutin | downregulated the expression of melanogenesis enzymes; also recorded: dose-dependently attenuated the expression of TYR, TRP-1, and TRP-2 | none of them exhibited significant cytotoxicity up to 100 μM | Ki (mushroom tyrosinase [3]; Ki Value, L-DOPA, substrate L-DOPA): 7.14 µM; Ki (mushroom tyrosinase [3]; Ki Value, L-Tyrosine, substrate L-tyrosine): 2.7 µM; Type of inhibition, L-DOPA (mushroom tyrosinase [3]; substrate L-DOPA, listed as phlorofucofuroeckol-A): non-competitive; Type of inhibition, L-Tyrosine (mushroom tyrosinase [3]; substrate L-tyrosine, listed as phlorofucofuroeckol-A): non-competitive; IC50 (mushroom tyrosinase [9]; [15]): 8.14 ± 0.29 µM; IC50 (mushroom tyrosinase [9]; [16]): 3.42 ± 0.01 µM |
| CC1=C(/C=C/C(C)=C/C=C/C(C)=C/CO)C(C)(C)CCC1 [retinol] |  |  |  |  |  |  |  |  |  |  |  | Inhibition of melanin synthesis (melanin synthesis): 75.3% |

Second part, led by results:

| IC50 [1] | IC50 [2] | IC50 [5] | Compound | Type of inhibition, L-DOPA (mushroom tyrosinase [3]; substrate L-DOPA) | Type of inhibition, L-Tyrosine (mushroom tyrosinase [3]; substrate L-tyrosine) | Cellular tyrosinase activity of α-MSH-stimulated B16F10 cells [4] | Inhibition of cellular tyrosinase compared with arbutin (500 μM) [4] | Melanin content of α-MSH-stimulated B16F10 cells (B16F10 melanoma cells [6]) | Inhibition of melanin content compared with arbutin (500 μM) (B16F10 melanoma cells [6]) | Expression of tyrosinase, TRP-1, and TRP-2 (Western blot) [7] | Cytotoxicity towards B16F10 melanoma cells (MTT) (B16F10 melanoma cells [8]) | also measured |
| --- | --- | --- | --- | --- | --- | --- | --- | --- | --- | --- | --- | --- |
| 1.07 ± 0.21 µM |  |  | CC(C)(S)C(N)C(=O)O (stereo in doubt) [Penicillamine, L-penicillamine, reference compound] |  |  |  |  |  |  |  |  |  |
|  | 0.69 ± 0.04 µM |  | O=C1O[C@H]([C@@H](O)CO)C(O)=C1O [Ascorbic acid, L-ascorbic acid, reference compound] |  |  |  |  |  |  |  |  |  |
| 0.26 ± 0.06 µM | 0.92 ± 0.11 µM | 6.29 ± 0.34 µM | Oc1cc(O)cc(Oc2c(O)cc(O)c3c2oc2cc(O)c4c(c23)Oc2c(O)cc(O)c(Oc3cc(O)cc(O)c3-c3c(O)cc(O)cc3Oc3c(O)cc(O)cc3Oc3c(O)cc(O)cc3O)c2O4)c1 [Compound 974-A, 974-A] | Competitive | Competitive | reduced the cellular melanin content and tyrosinase activity | as active | reduced the cellular melanin content | comparable to arbutin | downregulated the expression of melanogenesis enzymes; also recorded: dose-dependently attenuated the expression of tyrosinase, TRP-1, and TRP-2 | none of them exhibited significant cytotoxicity up to 100 μM | Ki (mushroom tyrosinase [3]; [11]): 3.33 µM; Ki (mushroom tyrosinase [3]; [12]): 0.69 µM; IC50 (mushroom tyrosinase [9]; [13]): 3.56 ± 0.22 µM; IC50 (mushroom tyrosinase [9]; [14]): 1.57 ± 0.08 µM |
| 1.72 ± 0.59 µM | > 100 µM | 31.5 ± 1.68 µM | Oc1cc(O)cc(O)c1 [Phloroglucinol, phloroglucinol] |  |  |  |  |  |  |  |  | Inhibition of mushroom tyrosinase, either substrate (in words) (mushroom tyrosinase [9]; L-tyrosine and L-DOPA): No significant inhibition; IC50 (mushroom tyrosinase [9]; [13]): > 400 µM; IC50 (mushroom tyrosinase [9]; [14]): 251 ± 5.52 µM |
|  |  | 18.4 ± 0.7 µM | Cc1c(C)c2c(c(C)c1O)CCC(C)(C(=O)O)O2 (centres unmarked) [Trolox, reference compound] |  |  |  |  |  |  |  |  |  |
